pEC50: −log10 of the molar value.
Columns and labels:
PPARγ-RXRα heterodimer = target: T1, PPARγ-RXRα heterodimer (Homo sapiens, UniProt P37231); test: PPARγ-RXRα heterodimer ligand activity (luciferase reporter, PPARγ:RXRα:4ERPP/CHO-K1 cells); format: cell-based; conditions: concentration for 50% of maximum fold induction of luciferase, 48 hrs
T1 construct: expressed in transfected cells
T1 sequence (P37231 1-477 isoform P37231-2): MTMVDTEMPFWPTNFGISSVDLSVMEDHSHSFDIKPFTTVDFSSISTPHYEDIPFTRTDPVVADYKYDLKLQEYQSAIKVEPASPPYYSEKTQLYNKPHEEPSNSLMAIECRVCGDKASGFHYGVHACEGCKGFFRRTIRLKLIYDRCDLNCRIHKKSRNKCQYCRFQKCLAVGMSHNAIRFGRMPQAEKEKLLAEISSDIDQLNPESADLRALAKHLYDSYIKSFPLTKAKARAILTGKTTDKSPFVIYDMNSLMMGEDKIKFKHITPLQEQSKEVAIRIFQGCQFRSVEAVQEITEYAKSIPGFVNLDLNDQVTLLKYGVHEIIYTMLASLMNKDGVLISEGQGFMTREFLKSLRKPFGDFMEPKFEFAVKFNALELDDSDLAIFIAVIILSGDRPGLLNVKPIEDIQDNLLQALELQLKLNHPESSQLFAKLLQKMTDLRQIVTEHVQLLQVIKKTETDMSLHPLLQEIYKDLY
T1 sequence (P19793 1-462 partner): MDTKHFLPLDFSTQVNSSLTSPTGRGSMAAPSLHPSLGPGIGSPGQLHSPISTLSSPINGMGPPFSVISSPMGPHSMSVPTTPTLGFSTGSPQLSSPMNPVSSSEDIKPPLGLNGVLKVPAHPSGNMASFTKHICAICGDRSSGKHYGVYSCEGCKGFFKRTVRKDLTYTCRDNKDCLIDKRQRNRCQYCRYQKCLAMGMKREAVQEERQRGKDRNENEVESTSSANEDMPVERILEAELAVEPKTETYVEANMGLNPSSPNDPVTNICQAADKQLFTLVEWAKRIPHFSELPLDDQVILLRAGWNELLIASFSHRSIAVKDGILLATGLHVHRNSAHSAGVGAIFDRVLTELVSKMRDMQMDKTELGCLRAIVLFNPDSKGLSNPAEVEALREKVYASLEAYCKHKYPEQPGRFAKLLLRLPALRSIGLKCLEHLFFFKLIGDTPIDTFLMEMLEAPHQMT
Method: (PPARγ-RXRα Heterodimer Ligand Activity)
PPARγ:RXRα:4ERPP/CHO-K1 cells obtained in Reference Example 8a were cultured in HAM F12 medium (manufactured by NISSUI SEIYAKU) containing 10% fetal bovine serum [manufactured by Life Technologies, Inc., USA], seeded in a 96-well white plate [manufactured by Corning Coster Corporation, USA] at the density of 2×10^4 cells/well and cultured in a CO2 gas incubator at 37° C. overnight.
After washing the 96-well white plate with PBS (Phosphate-buffered saline), 90 μl of HAM F12 medium containing 0.1% fatty acid-free bovine serum albumin (BSA) and 10 μl of test compound were added, and the cells were cultured in a CO2 gas incubator at 37° C. for 48 hrs. The medium was removed and 40 μl of PicaGene 7.5 (manufactured by Wako Pure Chemical Industries, Ltd.) was added. After stirring, the luciferase activity was determined using Lumistar [manufactured by BMG Labtechnologies GmbH, Germany].
The fold induction was calculated from the luciferase activity of each test compound when the luciferase activity of the non-treatment group is taken as 1. The values of the test compound concentration and the fold induction were analyzed using PRISM 2.01 (produced by GraphPad Software Inc. USA) to calculate the EC50 values, the effective concentration of a test compound for 50% of the maximum fold induction.
Introduction of Human PPARγ- and RXRα-Expression Plasmid and Reporter Plasmid into CHO-K1 Cell and Establishment of Expressed Cell
After a CHO-K1 cell cultured in a tissue culture flask (750 ml) (produced by Corning Costar Corporation, USA) containing HAM F12 medium (produced by NISSUI SEIYAKU) supplemented with 10% fetal bovine serum (produced by Life Technologies, Inc., USA) was scraped by treating with 0.5 g/L trypsin-0.2 g/L EDTA (ethylenediaminetetraacetic acid) (produced by Life Technologies, Inc., USA), the cell was washed with PBS (phosphate-buffered saline) (produced by Life Technologies, Inc., USA), centrifuged (1000 rpm, 5 minutes), and then suspended in PBS. Subsequently, a DNA was introduced into the cell under the conditions shown below using GENE PULSER (produced by Bio-Rad Laboratories, USA).
Namely, to a cuvette having a 0.4 cm gap, added were 8×10^6 cells and 10 μg of plasmid pVgRXR2-hPPARγ obtained in Reference Example 7a and 10 μg of reporter plasmid pGL3-4ERPP-TK neo obtained in Reference Example 4a, which was subjected to electroporation at the voltage of 0.25 kV under the capacitance of 960 μF. Subsequently, the cell was transferred into a HAM F12 medium containing 10% fetal bovine serum and cultured for 24 hours and then the cell was scraped again and centrifuged, and then suspended in HAM F12 medium containing 10% fetal bovine serum supplemented with 500 μg/ml of GENETICIN, (produced by Life Technologies, Inc., USA) and 250 μg /ml of ZEOCIN (produced by Invitrogen, USA). The obtained suspension was diluted to the density of 10^4 cells/ml and inoculated to a 96-well plate (produced by Corning Costar Corporation, USA), which was cultured in a CO2 gas incubator at 37° C., whereby obtaining a GENETICIN- and ZEOCIN-resistant transformant.
Subsequently, after the transformant cell line thus obtained was cultured in a 24-well plate (produced by Corning Costar Corporation, USA), selected was a cell line in which the luciferase was expressed and induced, i.e., PPARγ:RXRα:4ERPP/CHO-K1 cell by the addition of 10 μM pioglitazone hydrochloride.

With `Cc1oc(-c2ccccc2)nc1COc1ccc(Sc2nc(-c3ccccc3)c(CCC(=O)O)o2)cc1` [Example 10, 3-[2-[4-(5-methyl-2-phenyl-4-oxazolylmethoxy)phenylthio]-4-phenyl-5-oxazolyl]propionic acid] as the molecule, how does the pEC50 (PPARγ-RXRα heterodimer) read?
Its pEC50 is 8.00.

What about the melting point of the same molecule?
Its melting point is 136 to 137 °C.
